34 compounds from patent publication US12239643B2, “Therapeutic agent for inflammatory diseases, autoimmune diseases, fibrotic diseases, and cancer diseases” (MEIJI SEIKA PHARMA CO., LTD., priority 2018, dated 2025) can be followed below.

Each structure is given as a SMILES string.

For the first test, the system named is PDE4. The test is described as follows: Evaluation of PDE4 inhibitory activity, scintillation proximity assay. Type of test: biochemical. The conditions noted are these: scintillation proximity assay; class symbols of Evaluation 1; read-out: PDE4 Inhibitory Activity (concentration for the inhibition rate of 50%, IC50), Evaluation 1. Put shortly: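 SPA with [2,8-3H]-cAMP and diluted PDE4 enzyme preparation in 50 mM Tris-HCl pH 7.4, 8.3 mM MgCl2, 1.7 mM EGTA, 3 mg/mL BSA, 120 min at room temperature. Product captured on ZnSO4-containing YSi-SPA beads, scintillation counted; IC50 from inhibition curves vs DMSO control and no-enzyme blank.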
Background: In a scintillation proximity assay essentially only radioactivity close to the scintillant gives light.
Take `CC(O)(c1cc(-c2nccs2)c2oc(N3CC4CC(C3)N4)nc2c1)C(F)(F)F` (stereo not shown) [Example 160, 2-(2-(3,6-Diazabicyclo[3.1.1]heptan-3-yl)-7-(thiazol-2-yl)benzo[d]oxazol-5-yl)-1,1,1-trifluoropropan-2-ol]: the IC50 is less than 100 nM. On to `CC(O)c1ccc(-c2nccs2)c2oc(N3CC4CCC(C3)N4)nc12` (stereo not shown) [Example 124, 1-(2-(3,8-Diazabicyclo[3.2.1]octan-3-yl)-7-(thiazol-2-yl)benzo[d]oxazol-4-yl)ethan-1-ol], for which the IC50 is less than 100 nM. Regarding `FC(F)(F)c1ccc(-c2nccs2)c2oc(N3CC4CCC(C3)N4)nc12` [Example 31, 2-(3,8-Diazabicyclo[3.2.1]octan-3-yl)-7-(thiazol-2-yl)-4-(trifluoromethyl)benzo[d]oxazole], the IC50 was less than 100 nM. Turning to `CC(O)(c1cc(-c2nccs2)c2oc(N3CC4CCC(C3)N4)nc2c1)C(F)(F)F` (stereo not shown) [Example 159, 2-(2-(3,8-Diazabicyclo[3.2.1]octan-3-yl)-7-(thiazol-2-yl)benzo[d]oxazol-5-yl)-1,1,1-trifluoropropan-2-ol], the IC50 was less than 100 nM.

For `CC(C)c1cc(-c2nccs2)c2oc(N3CC4CCC(C3)N4)nc2c1` [Example 21, 2-(3,8-Diazabicyclo[3.2.1]octan-3-yl)-5-isopropyl-7-(thiazol-2-yl)benzo[d]oxazole], the IC50 was less than 100 nM. Consider `Oc1ccc(-c2nccs2)c2oc(N3CC4CCC(C3)N4)nc12` [Example 78, 2-(3,8-Diazabicyclo[3.2.1]octan-3-yl)-7-(thiazol-2-yl)benzo[d]oxazol-4-ol], for which the IC50 is less than 100 nM. Still for that read-out and setting: the result for `COc1cc(-c2nccs2)c2oc(N3CC4CCCC(C3)N4)nc2c1` [Example 62, 2-(3,9-Diazabicyclo[3.3.1]nonan-3-yl)-5-methoxy-7-(thiazol-2-yl)benzo[d]oxazole] reads less than 100 nM. Same read-out and setting: the result for `CCOC(=O)c1cc(-c2nccs2)c2oc(N3CC4CCCC(C3)N4)nc2c1` [Example 89, Ethyl 2-(3,9-diazabicyclo[3.3.1]nonan-3-yl)-7-(thiazol-2-yl)benzo[d]oxazole-5-carboxylate] reads less than 100 nM.

For the compound `COC(C)(C)c1cc(-c2nccs2)c2oc(N3CC4CC(C3)N4)nc2c1` [Example 174, 2-(3,6-Diazabicyclo[3.1.1]heptan-3-yl)-5-(2-methoxypropan-2-yl)-7-(thiazol-2-yl)benzo[d]oxazole], the IC50 was less than 100 nM. On the same count and under the same terms, the value for `FC(F)(F)c1cc(-c2nccs2)c2oc(N3CC4CCC(C3)N4)nc2c1` [Example 51, 2-(3,8-Diazabicyclo[3.2.1]octan-3-yl)-7-(thiazol-2-yl)-5-(trifluoromethyl)benzo[d]oxazole] was less than 100 nM; that for `CS(=O)(=O)c1cc(-c2nccs2)c2oc(N3CC4CCCC(C3)N4)nc2c1` [Example 47, 2-(3,9-Diazabicyclo[3.3.1]nonan-3-yl)-5-(methylsulfonyl)-7-(thiazol-2-yl)benzo[d]oxazole] was less than 100 nM; that for `N#CCOc1ccc(-c2nccs2)c2oc(N3CC4CCC(C3)N4)nc12` [Example 82, 2-((2-(3,8-Diazabicyclo[3.2.1]octan-3-yl)-7-(thiazol-2-yl)benzo[d]oxazol-4-yl)oxy)acetonitrile] was less than 100 nM.

For `c1csc(-c2ccc(-c3nccs3)c3oc(N4CC5CCC(C4)N5)nc23)n1` [Example 85, 2-(3,8-Diazabicyclo[3.2.1]octan-3-yl)-4,7-di(thiazol-2-yl)benzo[d]oxazole], the IC50 is less than 100 nM.

Turning to `COC(C)c1cc(-c2nccs2)c2oc(N3CC4CCC(C3)N4)nc2c1` (stereo not shown) [Example 110, 2-(3,8-Diazabicyclo[3.2.1]octan-3-yl)-5-(1-methoxyethyl)-7-(thiazol-2-yl)benzo[d]oxazole], the IC50 was less than 100 nM.

Still in this test, the particulars now being: scintillation proximity assay; read-out: PDE4 Inhibitory Activity (Evaluation 1; concentration for the inhibition rate of 50%).
With `CC(O)(c1cc(-c2nccs2)c2oc(N3CC4CC(C3)N4)nc2c1OC(F)(F)F)C(F)(F)F` (stereo not shown) [Example 216, 2-(2-(3,6-Diazabicyclo[3.1.1]heptan-3-yl)-7-(thiazol-2-yl)-4-(trifluoromethoxy)benzo[d]oxazol-5-yl)-1,1,1-trifluoropropan-2-ol], the IC50 is less than 100 nM. The same measure, in the same setting: the result for `CC(C)(O)C1CC(Oc2ccc(-c3nccs3)c3oc(N4CC5CC(C4)N5)nc23)C1` (stereo not shown) [Example 267, 2-(3-((2-(3,6-Diazabicyclo[3.1.1]heptan-3-yl)-7-(thiazol-2-yl)benzo[d]oxazol-4-yl)oxy)cyclobutyl)propan-2-ol] reads less than 100 nM; that for `NS(=O)(=O)c1ccc(-c2nccs2)c2oc(N3CC4CC(C3)N4)nc12` [Example 396, 2-(3,6-Diazabicyclo[3.1.1]heptan-3-yl)-7-(thiazol-2-yl)benzo[d]oxazole-4-sulfonamide], less than 100 nM. Same read-out and setting: the result for `OC1(COC(c2ccc(-c3cscn3)c3oc(N4CC5CC(C4)N5)nc23)C(F)(F)F)CC1` (stereo not shown) [Example 286, 1-((1-(2-(3,6-Diazabicyclo[3.1.1]heptan-3-yl)-7-(thiazol-4-yl)benzo[d]oxazol-4-yl)-2,2,2-trifluoroethoxy)methyl)cyclopropan-1-ol] reads less than 100 nM. The same measure, in the same setting: the value for `CC(O)(c1cc(-c2nccs2)c2oc(N3CC4CCC(C3)N4)nc2c1OC(F)(F)F)C(F)(F)F` (stereo not shown) [Example 217, 2-(2-(3,8-Diazabicyclo[3.2.1]octan-3-yl)-7-(thiazol-2-yl)-4-(trifluoromethoxy)benzo[d]oxazol-5-yl)-1,1,1-trifluoropropan-2-ol] was less than 100 nM. As for `CN(C)C(=O)C(F)(F)Oc1ccc(-c2nccs2)c2oc(N3CC4CC(C3)N4)nc12` [Example 408, 2-((2-(3,6-Diazabicyclo[3.1.1]heptan-3-yl)-7-(thiazol-2-yl)benzo[d]oxazol-4-yl)oxy)-2,2-difluoro-N,N-dimethylacetamide], the IC50 was less than 100 nM. On the same count and under the same terms, the result for `CCOC(=O)c1cc(-c2nccs2)c2oc(N3CC4CCCC(C3)N4)nc2c1OC(F)(F)F` [Example 188, Ethyl 2-(3,9-diazabicyclo[3.3.1]nonan-3-yl)-7-(thiazol-2-yl)-4-(trifluoromethoxy)benzo[d]oxazole-5-carboxylate] reads less than 100 nM; that for `CC(O)(c1ccc(-c2nccs2)c2oc(N3CC4CC(C3)N4)nc12)C(F)F` (stereo not shown) [Example 297, 2-(2-(3,6-Diazabicyclo[3.1.1]heptan-3-yl)-7-(thiazol-2-yl)benzo[d]oxazol-4-yl)-1,1-difluoropropan-2-ol], less than 100 nM. In the case of `CC(C)(O)c1ccc(-c2nccs2)c2oc(N3CC4CCC(C3)N4)nc12` [Example 247, 2-(2-(3,8-Diazabicyclo[3.2.1]octan-3-yl)-7-(thiazol-2-yl)benzo[d]oxazol-4-yl)propan-2-ol], the IC50 is less than 100 nM. Regarding `CC(C)(O)CC(F)(F)Oc1ccc(-c2nccs2)c2oc(N3CC4CC(C3)N4)nc12` [Example 295, 4-((2-(3,6-Diazabicyclo[3.1.1]heptan-3-yl)-7-(thiazol-2-yl)benzo[d]oxazol-4-yl)oxy)-4,4-difluoro-2-methylbutan-2-ol], the IC50 was less than 100 nM. As to `OCC(F)(F)Oc1ccc(-c2cscn2)c2oc(N3CC4CCC(C3)N4)nc12` [Example 312, 2-((2-(3,8-Diazabicyclo[3.2.1]octan-3-yl)-7-(thiazol-4-yl)benzo[d]oxazol-4-yl)oxy)-2,2-difluoroethan-1-ol], the IC50 was less than 100 nM. On the same count and under the same terms, the value for `CC(C)C(O)c1cc(-c2nccs2)c2oc(N3CC4CCC(C3)N4)nc2c1OC(F)(F)F` (stereo not shown) [Example 205, 1-(2-(3,8-Diazabicyclo[3.2.1]octan-3-yl)-7-(thiazol-2-yl)-4-(trifluoromethoxy)benzo[d]oxazol-5-yl)-2-methylpropan-1-ol] was less than 100 nM; that for `O=C(O)c1ccc(-c2nccs2)c2oc(N3CC4CC(C3)N4)nc12` [Example 366, 2-(3,6-Diazabicyclo[3.1.1]heptan-3-yl)-7-(thiazol-2-yl)benzo[d]oxazole-4-carboxylic acid] was 100 to 1000 nM.

As to `COC(c1ccc(-c2nccs2)c2oc(N3CC4CCC(C3)N4)nc12)C(F)(F)F` (stereo not shown) [Example 222, 2-(3,8-Diazabicyclo[3.2.1]octan-3-yl)-7-(thiazol-2-yl)-4-(2,2,2-trifluoro-1-methoxyethyl)benzo[d]oxazole], the IC50 was less than 100 nM.

Turning to `N#CCOC(c1ccc(-c2nccs2)c2oc(N3CC4CC(C3)N4)nc12)C(F)(F)F` (stereo not shown) [Example 226, 2-(1-(2-(3,6-Diazabicyclo[3.1.1]heptan-3-yl)-7-(thiazol-2-yl)benzo[d]oxazol-4-yl)-2,2,2-trifluoroethoxy)acetonitrile], the IC50 is less than 100 nM. On the same count and under the same terms, the value for `CCOC(=O)c1cc(-c2nccs2)c2oc(N3CC4CC(C3)N4)nc2c1OC(F)(F)F` [Example 187, Ethyl 2-(3,6-diazabicyclo[3.1.1]heptan-3-yl)-7-(thiazol-2-yl)-4-(trifluoromethoxy)benzo[d]oxazole-5-carboxylate] was less than 100 nM; that for `CC(C)(O)C(F)(F)Oc1ccc(-c2ncco2)c2oc(N3CC4CC(C3)N4)nc12` [Example 290, 1-((2-(3,6-Diazabicyclo[3.1.1]heptan-3-yl)-7-(oxazol-2-yl)benzo[d]oxazol-4-yl)oxy)-1,1-difluoro-2-methylpropan-2-ol] was less than 100 nM; that for `OC(O)(c1ccc(-c2nccs2)c2oc(N3CC4CCC(C3)N4)nc12)C(F)(F)F` [Example 233, 1-(2-(3,8-Diazabicyclo[3.2.1]octan-3-yl)-7-(thiazol-2-yl)benzo[d]oxazol-4-yl)-2,2,2-trifluoroethane-1,1-diol] was less than 100 nM. As for `OC(c1cc(-c2nccs2)c2oc(N3CC4CCC(C3)N4)nc2c1OC(F)(F)F)C(F)F` (stereo not shown) [Example 276, 1-(2-(3,8-Diazabicyclo[3.2.1]octan-3-yl)-7-(thiazol-2-yl)-4-(trifluoromethoxy)benzo[d]oxazol-5-yl)-2,2-difluoroethan-1-ol], the IC50 is less than 100 nM. Consider `c1csc(-c2ccc(C3CC3)c3nc(N4CC5CC(C4)N5)oc23)n1` [Example 344, 2-(3,6-Diazabicyclo[3.1.1]heptan-3-yl)-4-cyclopropyl-7-(thiazol-2-yl)benzo[d]oxazole], for which the IC50 is less than 100 nM.
